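Protocol summary: plate cells (96-well), add compound at 5 concentrations, incubate 48 h, interpolate endpoints linearly. TGI: total growth inhibition.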
The compounds below were run on SK-MEL-28 melanoma (assay: growth of human tumour cells (NCI), 48 h).

CCCCCC(C(O)C#N)C(O)(C(F)(F)F)C(F)(F)F (configuration not stated) and CC/C=C\C/C=C\C/C=C\CCCCCCCC(=O)OC(COC(=O)CCCCCCCCCCCCCCCCC)COC1OC(CO)C(O)C(O)C1O (configuration not stated) cannot be ordered by TGI: > 10 µM for the first, > 25 µM for the second.

CC12CCC(C/C1=N\NC(N)=O)C2(C)C (configuration not stated) and COC(=O)C1=C(C)N2[C@H](C(=O)O)CS[C@@]2(C)[C@H](C(=O)OC)[C@H]1c1cccc([N+](=O)[O-])c1 cannot be ordered by TGI: > 100 µM for the first, > 100 µM for the second.

For COC(=O)C(CCCCNC(=O)CNC(=O)OCc1ccccc1)NC(=O)C(CCCCNC(=O)CNC(=O)OCc1ccccc1)NC(=O)OCc1ccccc1 (configuration not stated), the TGI was > 100 µM.

Each compound was assayed on SK-MEL-5 melanoma (assay: growth of human tumour cells (NCI), 48 h).

Compared with CCN(CC)C(=S)SS(=O)(=O)c1ccc(C)cc1, COc1ccc(/C(C)=N/NC(=S)N(C)C)c(O)c1 is higher in TGI: 30.4 µM for the first, > 100 µM for the second.

C[C@@H]1C(=O)CC2(O)[C@@]13C[C@@H](OC(=O)[C@@H]3O)[C@@H](C)[C@@]21COC1=O (some centres not stated) and CC12CCC(C/C1=N\NC(N)=O)C2(C)C (configuration not stated) cannot be ordered by TGI: > 100 µM for the first, > 100 µM for the second.

CCCCCC(C(O)C#N)C(O)(C(F)(F)F)C(F)(F)F (configuration not stated) and CC/C=C\C/C=C\C/C=C\CCCCCCCC(=O)OC(COC(=O)CCCCCCCCCCCCCCCCC)COC1OC(CO)C(O)C(O)C1O (configuration not stated) cannot be ordered by TGI: > 10 µM for the first, > 25 µM for the second.

COC(=O)C1=C(C)N2[C@H](C(=O)O)CS[C@@]2(C)[C@H](C(=O)OC)[C@H]1c1cccc([N+](=O)[O-])c1 and COC(=O)C(CCCCNC(=O)CNC(=O)OCc1ccccc1)NC(=O)C(CCCCNC(=O)CNC(=O)OCc1ccccc1)NC(=O)OCc1ccccc1 (configuration not stated) cannot be ordered by TGI: > 100 µM for the first, > 100 µM for the second.

What follows are compounds tested on SK-OV-3 ovarian (assay: growth of human tumour cells (NCI), 48 h).

CCN(CC)C(=S)SS(=O)(=O)c1ccc(C)cc1 and COc1ccc(/C(C)=N/NC(=S)N(C)C)c(O)c1 cannot be ordered by TGI: > 100 µM for the first, > 100 µM for the second.

C[C@@H]1C(=O)CC2(O)[C@@]13C[C@@H](OC(=O)[C@@H]3O)[C@@H](C)[C@@]21COC1=O (some centres not stated) and CC12CCC(C/C1=N\NC(N)=O)C2(C)C (configuration not stated) cannot be ordered by TGI: > 100 µM for the first, > 100 µM for the second.

CCCCCC(C(O)C#N)C(O)(C(F)(F)F)C(F)(F)F (configuration not stated) and CC/C=C\C/C=C\C/C=C\CCCCCCCC(=O)OC(COC(=O)CCCCCCCCCCCCCCCCC)COC1OC(CO)C(O)C(O)C1O (configuration not stated) cannot be ordered by TGI: > 10 µM for the first, > 25 µM for the second.

In the case of COC(=O)C1=C(C)N2[C@H](C(=O)O)CS[C@@]2(C)[C@H](C(=O)OC)[C@H]1c1cccc([N+](=O)[O-])c1, the TGI is reported as > 100 µM.

What follows are compounds tested on SN12C renal (assay: growth of human tumour cells (NCI), 48 h).

Going from CCN(CC)C(=S)SS(=O)(=O)c1ccc(C)cc1 to COc1ccc(/C(C)=N/NC(=S)N(C)C)c(O)c1, the TGI rises from 49.7 µM to > 100 µM.

C[C@@H]1C(=O)CC2(O)[C@@]13C[C@@H](OC(=O)[C@@H]3O)[C@@H](C)[C@@]21COC1=O (some centres not stated) and CC12CCC(C/C1=N\NC(N)=O)C2(C)C (configuration not stated) cannot be ordered by TGI: > 100 µM for the first, > 100 µM for the second.

CCCCCC(C(O)C#N)C(O)(C(F)(F)F)C(F)(F)F (configuration not stated) and CC/C=C\C/C=C\C/C=C\CCCCCCCC(=O)OC(COC(=O)CCCCCCCCCCCCCCCCC)COC1OC(CO)C(O)C(O)C1O (configuration not stated) cannot be ordered by TGI: > 10 µM for the first, > 25 µM for the second.

COC(=O)C1=C(C)N2[C@H](C(=O)O)CS[C@@]2(C)[C@H](C(=O)OC)[C@H]1c1cccc([N+](=O)[O-])c1 and COC(=O)C(CCCCNC(=O)CNC(=O)OCc1ccccc1)NC(=O)C(CCCCNC(=O)CNC(=O)OCc1ccccc1)NC(=O)OCc1ccccc1 (configuration not stated) cannot be ordered by TGI: > 100 µM for the first, > 100 µM for the second.

The compounds below were run on SNB-19 CNS (assay: growth of human tumour cells (NCI), 48 h).

CCN(CC)C(=S)SS(=O)(=O)c1ccc(C)cc1 and COc1ccc(/C(C)=N/NC(=S)N(C)C)c(O)c1 cannot be ordered by TGI: > 100 µM for the first, > 100 µM for the second.

C[C@@H]1C(=O)CC2(O)[C@@]13C[C@@H](OC(=O)[C@@H]3O)[C@@H](C)[C@@]21COC1=O (some centres not stated) and CC12CCC(C/C1=N\NC(N)=O)C2(C)C (configuration not stated) cannot be ordered by TGI: > 100 µM for the first, > 100 µM for the second.

CCCCCC(C(O)C#N)C(O)(C(F)(F)F)C(F)(F)F (configuration not stated) and CC/C=C\C/C=C\C/C=C\CCCCCCCC(=O)OC(COC(=O)CCCCCCCCCCCCCCCCC)COC1OC(CO)C(O)C(O)C1O (configuration not stated) cannot be ordered by TGI: > 10 µM for the first, > 25 µM for the second.

COC(=O)C1=C(C)N2[C@H](C(=O)O)CS[C@@]2(C)[C@H](C(=O)OC)[C@H]1c1cccc([N+](=O)[O-])c1 and COC(=O)C(CCCCNC(=O)CNC(=O)OCc1ccccc1)NC(=O)C(CCCCNC(=O)CNC(=O)OCc1ccccc1)NC(=O)OCc1ccccc1 (configuration not stated) cannot be ordered by TGI: > 100 µM for the first, > 100 µM for the second.

What follows are compounds tested on SNB-75 CNS (assay: growth of human tumour cells (NCI), 48 h).

C[C@@H]1C(=O)CC2(O)[C@@]13C[C@@H](OC(=O)[C@@H]3O)[C@@H](C)[C@@]21COC1=O (some centres not stated) and CC12CCC(C/C1=N\NC(N)=O)C2(C)C (configuration not stated) cannot be ordered by TGI: > 100 µM for the first, > 100 µM for the second.

COc1ccc(/C(C)=N/NC(=S)N(C)C)c(O)c1 and COC(=O)C1=C(C)N2[C@H](C(=O)O)CS[C@@]2(C)[C@H](C(=O)OC)[C@H]1c1cccc([N+](=O)[O-])c1 cannot be ordered by TGI: > 100 µM for the first, > 100 µM for the second.

CCCCCC(C(O)C#N)C(O)(C(F)(F)F)C(F)(F)F (configuration not stated) and CC/C=C\C/C=C\C/C=C\CCCCCCCC(=O)OC(COC(=O)CCCCCCCCCCCCCCCCC)COC1OC(CO)C(O)C(O)C1O (configuration not stated) cannot be ordered by TGI: > 10 µM for the first, > 25 µM for the second.

COC(=O)C(CCCCNC(=O)CNC(=O)OCc1ccccc1)NC(=O)C(CCCCNC(=O)CNC(=O)OCc1ccccc1)NC(=O)OCc1ccccc1 (configuration not stated) was tested, and the TGI was > 100 µM.

What follows are compounds tested on SR leukemia (assay: growth of human tumour cells (NCI), 48 h).

C[C@@H]1C(=O)CC2(O)[C@@]13C[C@@H](OC(=O)[C@@H]3O)[C@@H](C)[C@@]21COC1=O (some centres not stated) and CC12CCC(C/C1=N\NC(N)=O)C2(C)C (configuration not stated) cannot be ordered by TGI: > 100 µM for the first, > 100 µM for the second.

COc1ccc(/C(C)=N/NC(=S)N(C)C)c(O)c1 and COC(=O)C1=C(C)N2[C@H](C(=O)O)CS[C@@]2(C)[C@H](C(=O)OC)[C@H]1c1cccc([N+](=O)[O-])c1 cannot be ordered by TGI: > 100 µM for the first, > 100 µM for the second.

CCCCCC(C(O)C#N)C(O)(C(F)(F)F)C(F)(F)F (configuration not stated) and CC/C=C\C/C=C\C/C=C\CCCCCCCC(=O)OC(COC(=O)CCCCCCCCCCCCCCCCC)COC1OC(CO)C(O)C(O)C1O (configuration not stated) cannot be ordered by TGI: > 10 µM for the first, > 25 µM for the second.

With COC(=O)C(CCCCNC(=O)CNC(=O)OCc1ccccc1)NC(=O)C(CCCCNC(=O)CNC(=O)OCc1ccccc1)NC(=O)OCc1ccccc1 (configuration not stated) the TGI was > 100 µM.

These compounds were tested on SW-620 colon (assay: growth of human tumour cells (NCI), 48 h).

Compared with CCN(CC)C(=S)SS(=O)(=O)c1ccc(C)cc1, C[C@@H]1C(=O)CC2(O)[C@@]13C[C@@H](OC(=O)[C@@H]3O)[C@@H](C)[C@@]21COC1=O (some centres not stated) is higher in TGI: 45.2 µM for the first, > 100 µM for the second.
